Assay results from PubChem BioAssay (NCI).
“And” between values parts separate entries of the source, which are not always exact repeats. Identical values can stand only once.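 How tested: cells in 96-well plates exposed to compound for 48 hours at five concentrations. GI50: concentration for 50% inhibition of growth. TGI: total growth inhibition.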

Columns and labels:
Assay in all cases: NCI-60 cell line screen, 48 h
BT-549 breast = system: BT-549 breast
PC-3 prostate = system: PC-3 prostate
MCF7 breast = system: MCF7 breast
DU-145 prostate = system: DU-145 prostate
T-47D breast = system: T-47D breast
NCI/ADR-RES ovarian = system: NCI/ADR-RES ovarian

Structure (SMILES) | GI50 (BT-549 breast) | TGI (BT-549 breast) | GI50 (PC-3 prostate) | TGI (PC-3 prostate) | GI50 (MCF7 breast) | TGI (MCF7 breast) | GI50 (DU-145 prostate) | TGI (DU-145 prostate) | GI50 (T-47D breast) | TGI (T-47D breast) | GI50 (NCI/ADR-RES ovarian) | TGI (NCI/ADR-RES ovarian)
COc1cc(C(=O)c2c(-c3ccccc3)oc3ccccc23)cc(OC)c1O | 1.39 µM | 7.82 µM | 3.47 µM | 15.7 µM | 0.399 µM | 16 µM | 3.15 µM | 13.6 µM | 2.14 µM | 31.8 µM | 0.876 µM | 20 µM
Nc1ccccc1C#Cc1ccccc1C#CCCCCO | 23.2 µM | 76.5 µM | 27.8 µM | 99.4 µM | 60.8 µM | > 100 µM | 28.2 µM | > 100 µM | 30.3 µM | > 100 µM | 14.4 µM | 39.4 µM
C[C@H]1CC(=O)[C@@]2(O)C#C/C=C\C#C[C@@H]3Nc4c(cc(O)c5c4C(=O)c4ccccc4C5=O)[C@]24O[C@]314 |  |  |  |  | 0.0025 µM | 0.247 µM and 0.895 µM | 0.0025 µM |  |  | 0.612 µM |  | 0.44 µM
COCCOC(=O)CCn1cc(F)c(=O)[nH]c1=O | 16.2 µg/mL | > 150 µg/mL | 108 µg/mL | > 150 µg/mL | 1.13 µg/mL | > 150 µg/mL | 5.57 µg/mL | > 150 µg/mL | 73.4 µg/mL | > 150 µg/mL | 46.4 µg/mL | > 150 µg/mL
COc1cc(SC)ccc1C(=O)N1CCCC(C)C1 (stereo unspecified) | > 100 µM | > 100 µM | > 100 µM | > 100 µM | 79 µM | > 100 µM | > 100 µM | > 100 µM | > 100 µM | > 100 µM | 70.6 µM | > 100 µM
CN1C=CN(Cc2ccc(-c3ccccn3)nc2)[CH-]1.CN1C=CN(Cc2ccc(-c3ccccn3)nc2)[CH-]1.[Au+3] | 2.46 µM | 20.1 µM | 0.922 µM | > 100 µM | 0.314 µM | 12.2 µM | 4.16 µM | 36.8 µM | 1.17 µM | 3.07 µM | > 70.8 µM | > 100 µM
O=C(N/N=C\c1cc(Cl)ccc1O)N/N=C/c1cc(Cl)ccc1O | > 100 µM | > 100 µM | 2.96 µM | > 100 µM | 3.12 µM | > 100 µM | > 100 µM | > 100 µM | 2.32 µM | > 100 µM | 2.48 µM | > 100 µM
O=C(/C=C/c1cccs1)Nc1ncc(Cc2ccccc2F)s1 |  | > 100 µM | 0.261 µM | > 100 µM | 0.318 µM | > 100 µM | 0.3 µM | > 100 µM | 0.404 µM | > 100 µM | 0.246 µM | > 100 µM
CCOC(=O)c1cc2cc([N+](=O)[O-])ccc2oc1=O |  | > 100 µM |  | > 100 µM |  | > 100 µM |  | > 100 µM |  | > 100 µM |  | > 100 µM
CC(=O)OCC1OC(O[C@@H]2C[C@H]3C(C)(C)[C@H](OC(C)=O)CC[C@]3(C)[C@H]3CC[C@@H]4[C@]5(CC[C@@]4(C)[C@@]32C)O[C@@H]([C@H](O)C(C)(C)O)C[C@@H]5C)C(O)C(O)C1O (stereo partly specified) | 12.1 µM | 24.5 µM | 3.84 µM | 14.3 µM | 1.06 µM | 6.03 µM | 10.6 µM | 22.8 µM | 5.63 µM | 18.4 µM | 16.4 µM | 31.1 µM
